Measured values: US11541057B2, “Thienopyrimidinone NMDA receptor modulators and uses thereof” (Cadent Therapeutics, Inc., priority 2015, dated 2023)

Biological target: T1, NMDA receptor GRIN1/GRIN2B (NR2B) expressed in HEK293 cells (Homo sapiens, UniProt Q13224)
T1 construct: host or cells: HEK293
Experiment: Reversal of Ro 25-6981-mediated suppression of the Ca2+ response (fluo-8 fluorescence, FDSS) in HEK293 cells expressing GRIN1 and GRIN2B
Format: cell-based
Conditions: % reversal=100*(R−Rneg)/(Rpos−Rneg) of Ro 25-6981 suppression of co-agonist (glutamate/glycine) Ca2+ response, 10 min pre-incubation, compound concentration not given
Description: HEK293 cells with constructs conferring stable expression of the GRIN1 gene and tetracycline-inducible expression of the GRIN2B gene (Chantest, Cleveland, Ohio) are grown to ˜75% confluence in tissue culture flasks at 37° C., 5% CO2. NR2B expression is induced by overnight incubation with 0.3-0.4 μg/ml tetracycline in the presence of 2.5 mM ARL-15896 at 37° C., followed by moving to 30° C. for 3-5 hours. Cells are next harvested using TripleExpress™ (Life Technologies, Carlsbad, Calif.) according to the manufacturer's instructions, first removing culture medium, rinsing with Dulbecco's phosphate buffered saline (Ca^2+ and Mg^2+-free), and then adding the TripleExpress™ reagent. Harvested cells are spun down, washed twice in Ca^2+- and Mg^2+-free Hank's Balanced Salt Solution with 20 mM HEPES and 10 mM glucose, pH 7.4 (HHnoCa solution), and counted with viability assessed using Trypan Blue. Cells are loaded with fluo-8 Ca^2+-sensitive dye in HHnoCa solution according to the manufacturer's directions (AAT Bioquest, Sunnyvale, Calif.), incubating at 37° C. for 20 minutes followed by 25 minutes at 22-25° C. After a wash in HHnoCa to remove extracellular dye, cells are resuspended in HHnoCa and plated at […] cells per well in a volume of 25 μl/well in 384 well black-wall, clear bottom plates (Hamamatsu, Middlesex, N.J.). Plates are then centrifuged to create a monolayer in the wells and stored in the dark until used.
Prior to analysis, compound plates are prepared with each compound at 6× the final desired concentration. From stock solutions at 10 mM in 100% DMSO, compounds are spotted in the desired amounts using an ECHO liquid handler (Labcyte, Sunnyvale, Calif.) into wells of a 384-well plate and then diluted with 50 μl of HHnoCa containing 750 nM Ro 25-6981 and 120 μM 5,7-dichlorokynurenic acid (both purchased from Tocris Bioscience (Bristol, England) and maintained as 10 mM stock solutions in 100% DMSO). To insure complete compound dissolution, these plates are then placed in an orbital shaker for at least one hour. Also prepared prior to the assay is a co-agonist plate containing HHnoCa with 240 μM glutamate, 2.4 mM glycine, and 7.2 mM CaCl2, which is 2.4× the desired final concentration of each reagent. Both the compound plate and co-agonist plate are 384-well polypropylene plates from Thermo Fisher Scientific, Waltham, Mass.
The assay is performed by first adding 10 μl solution from each well of the compound plate described above to the cell plate using a CyBiWell liquid handler (Analytik Jena AG, Jena, Germany), followed by 10 minutes pre-incubation in the dark. Cell plates are then loaded onto a Hamamatsu FDSS 6000 plate reader. After a 30-second baseline, 25 μl is added to each well from the co-agonist plate, and the fluorescence signal is recorded for another 2 minutes. FDSS software applies shading and autofluorescence correction, and resultant raw fluorescence measurements are exported in the form of a fluorescence ratio for each well to its own reading at time zero in the experiment. In each plate, negative control wells consist of wells where Ro 25-6981 and 5,7 dichlorokynurenic acid are present and co-agonist is applied in the absence of any added assay compound. Under these conditions, the Ca^2+ response to co-agonist is suppressed. Positive control wells also present in each plate contain 5,7 dichlorokynurenic acid but no Ro 25-6981, so that co-agonist addition results in a large Ca^2+ response. Compounds tested are evaluated on the basis of their ability to reverse the suppression of the Ca^2+ response mediated by Ro 25-6981, which is quantified as % reversal=100*(R−Rneg)/(Rpos−Rneg) where R is the fluorescence ratio for the test compound at the end of the experiment and Rneg and Rpos are the end ratios for the negative and positive controls, respectively. […]

T1 sequence (Q13224 27-1484, other chains not shown): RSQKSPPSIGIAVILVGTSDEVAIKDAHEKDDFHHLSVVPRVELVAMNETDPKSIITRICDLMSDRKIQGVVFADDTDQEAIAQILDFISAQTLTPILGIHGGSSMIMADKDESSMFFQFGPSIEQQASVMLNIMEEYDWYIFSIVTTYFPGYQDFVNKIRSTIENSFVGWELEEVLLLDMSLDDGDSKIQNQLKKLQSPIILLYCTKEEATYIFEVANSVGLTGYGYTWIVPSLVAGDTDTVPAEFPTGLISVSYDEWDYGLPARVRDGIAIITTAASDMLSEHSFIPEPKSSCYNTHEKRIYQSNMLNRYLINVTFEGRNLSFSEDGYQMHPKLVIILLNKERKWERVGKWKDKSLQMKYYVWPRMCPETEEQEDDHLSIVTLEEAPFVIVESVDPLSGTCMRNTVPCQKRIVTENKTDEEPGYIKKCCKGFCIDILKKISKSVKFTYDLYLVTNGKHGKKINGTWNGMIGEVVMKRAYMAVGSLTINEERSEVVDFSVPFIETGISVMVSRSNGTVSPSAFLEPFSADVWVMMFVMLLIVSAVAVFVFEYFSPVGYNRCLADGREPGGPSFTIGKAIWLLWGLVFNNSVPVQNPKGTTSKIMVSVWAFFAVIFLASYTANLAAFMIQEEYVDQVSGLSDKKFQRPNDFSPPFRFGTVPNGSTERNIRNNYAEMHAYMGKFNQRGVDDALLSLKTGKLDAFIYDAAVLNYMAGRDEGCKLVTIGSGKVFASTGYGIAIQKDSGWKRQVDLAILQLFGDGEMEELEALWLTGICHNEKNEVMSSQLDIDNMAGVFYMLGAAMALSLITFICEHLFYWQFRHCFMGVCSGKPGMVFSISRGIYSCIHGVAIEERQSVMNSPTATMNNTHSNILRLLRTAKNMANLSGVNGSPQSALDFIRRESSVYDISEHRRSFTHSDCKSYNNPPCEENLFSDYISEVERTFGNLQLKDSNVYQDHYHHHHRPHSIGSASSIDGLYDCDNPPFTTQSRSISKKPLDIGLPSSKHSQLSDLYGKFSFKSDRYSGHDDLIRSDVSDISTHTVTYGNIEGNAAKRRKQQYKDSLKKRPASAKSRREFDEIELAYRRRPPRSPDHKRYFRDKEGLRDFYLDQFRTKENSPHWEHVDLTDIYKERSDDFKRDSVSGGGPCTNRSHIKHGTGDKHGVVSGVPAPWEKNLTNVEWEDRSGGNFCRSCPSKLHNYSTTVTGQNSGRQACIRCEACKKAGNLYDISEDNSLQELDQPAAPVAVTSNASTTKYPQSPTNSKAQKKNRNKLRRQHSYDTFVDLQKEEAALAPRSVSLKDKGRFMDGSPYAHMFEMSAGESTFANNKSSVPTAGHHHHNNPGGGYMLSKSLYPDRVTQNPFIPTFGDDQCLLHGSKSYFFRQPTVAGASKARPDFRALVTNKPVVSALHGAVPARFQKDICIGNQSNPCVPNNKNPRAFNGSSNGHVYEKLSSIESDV

First: O=C(Cn1cnc2scc(-c3ccc(F)c(Cl)c3)c2c1=O)N1CCC(F)C1 (stereo not shown) [Example 58, 5-(3-chloro-4-fluorophenyl)-3-[2-(3-fluoropyrrolidin-1-yl)-2-oxoethyl]-3H,4H-thieno[2,3-d]pyrimidin-4-one]
Second: O=C(Cn1cnc2scc(-c3ccc(Cl)c(F)c3)c2c1=O)N1CCC(F)C1 (stereo not shown) [Example 59, 5-(4-chloro-3-fluorophenyl)-3-[2-(3-fluoropyrrolidin-1-yl)-2-oxoethyl]-3H,4H-thieno[2,3-d]pyrimidin-4-one]
The “Response Recovered (%)” value of the first is higher: 65% for the first, 43% for the second.

Going from `O=C(Cn1cnc2scc(-c3ccc(Cl)c(Cl)c3)c2c1=O)N1CCC(F)C1` (stereo not shown) [Example 60, 5-(3,4-dichlorophenyl)-3-[2-(3-fluoropyrrolidin-1-yl)-2-oxoethyl]-3H,4H-thieno[2,3-d]pyrimidin-4-one] to `O=C(Cn1cnc2scc(-c3ccc(Cl)c(Cl)c3)c2c1=O)N1CC[C@@H](F)C1` [Example 68, 5-(3,4-dichlorophenyl)-3-{2-[(3R)-3-fluoropyrrolidin-1-yl]-2-oxoethyl}-3H,4H-thieno[2,3-d]pyrimidin-4-one], the “Response Recovered (%)” value falls from 98% to 71%.

Going from `O=C(Cn1cnc2scc(-c3ccc(F)c(C(F)(F)F)c3)c2c1=O)N1CCC(F)C1` (stereo not shown) [Example 61] to `O=C(Cn1cnc2scc(-c3ccc(Cl)c(C(F)(F)F)c3)c2c1=O)N1CC[C@@H](F)C1` [Example 64, 5-[4-chloro-3-(trifluoromethyl)phenyl]-3-{2-[(3R)-3-fluoropyrrolidin-1-yl]-2-oxoethyl}-3H,4H-thieno[2,3-d]pyrimidin-4-one], the “Response Recovered (%)” value rises from 83% to 117%.

Compared with `O=C(Cn1cnc2scc(-c3ccc(C(F)(F)F)c(Cl)c3)c2c1=O)N1CCC(F)C1` (stereo not shown) [Example 62], `O=C(Cn1cnc2scc(-c3ccc(Cl)c(C(F)(F)F)c3)c2c1=O)N1CC[C@H](F)C1` [Example 65, 5-[4-chloro-3-(trifluoromethyl)phenyl]-3-{2-[(3S)-3-fluoropyrrolidin-1-yl]-2-oxoethyl}-3H,4H-thieno[2,3-d]pyrimidin-4-one] is higher in “Response Recovered (%)” value: 62% for the first, 87% for the second.

Going from `O=C(Cn1cnc2scc(-c3cnc(Cl)c(Cl)c3)c2c1=O)N1CCC(F)C1` (stereo not shown) [Example 63, 5-(5,6-dichloropyridin-3-yl)-3-[2-(3-fluoropyrrolidin-1-yl)-2-oxoethyl]-3H,4H-thieno[2,3-d]pyrimidin-4-one] to `O=C(Cn1cnc2scc(-c3ccc(Cl)c(Cl)c3)c2c1=O)N1CC[C@H](F)C1` [Example 69, 5-(3,4-dichlorophenyl)-3-{2-[(3S)-3-fluoropyrrolidin-1-yl]-2-oxoethyl}-3H,4H-thieno[2,3-d]pyrimidin-4-one], the “Response Recovered (%)” value rises from 10% to 94%.

First: O=C(Cn1cnc2scc(-c3ccc(Cl)c(C(F)(F)F)c3)c2c1=O)N1C[C@@H](F)[C@@H](F)C1 [Example 66, 5-[4-chloro-3-(trifluoromethyl)phenyl]-3-{2-[(3R,4S)-3,4-difluoropyrrolidin-1-yl]-2-oxoethyl}-3H,4H-thieno[2,3-d]pyrimidin-4-one]
Second: O=C(Cn1cnc2scc(-c3cnc(Cl)c(C(F)(F)F)c3)c2c1=O)N1CC(F)C(F)C1 (stereo not shown) [Example 71, 5-[6-chloro-5-(trifluoromethyl)pyridin-3-yl]-3-[2-(3,4-difluoropyrrolidin-1-yl)-2-oxoethyl]-3H,4H-thieno[2,3-d]pyrimidin-4-one]
The “Response Recovered (%)” value of the first is higher: 103% for the first, 25% for the second.

First: O=C(Cn1cnc2scc(-c3ccc(Cl)c(Cl)c3)c2c1=O)N1C[C@@H](F)[C@@H](F)C1 [Example 67, 5-(3,4-dichlorophenyl)-3-{2-[(3R,4S)-3,4-difluoropyrrolidin-1-yl]-2-oxoethyl}-3H,4H-thieno[2,3-d]pyrimidin-4-one]
Second: O=C(Cn1cnc2scc(-c3cnc(Cl)c(Cl)c3)c2c1=O)N1CC(F)C(F)C1 (stereo not shown) [Example 72, 5-(5,6-dichloropyridin-3-yl)-3-[2-(3,4-difluoropyrrolidin-1-yl)-2-oxoethyl]-3H,4H-thieno[2,3-d]pyrimidin-4-one]
The “Response Recovered (%)” value of the first is higher: 84% for the first, 15% for the second.

First: O=C(Cn1cnc2scc(-c3cnc(Cl)c(C(F)(F)F)c3)c2c1=O)N1CCC(F)C1 (stereo not shown) [Example 70, 5-[6-chloro-5-(trifluoromethyl)pyridin-3-yl]-3-[2-(3-fluoropyrrolidin-1-yl)-2-oxoethyl]-3H,4H-thieno[2,3-d]pyrimidin-4-one]
Second: O=C(Cn1cnc2scc(-c3cnc(F)c(Cl)c3)c2c1=O)N1CC(F)C(F)C1 (stereo not shown) [Example 73, 5-(5-chloro-6-fluoropyridin-3-yl)-3-[2-(3,4-difluoropyrrolidin-1-yl)-2-oxoethyl]-3H,4H-thieno[2,3-d]pyrimidin-4-one]
The “Response Recovered (%)” value of the first is higher: 22% for the first, 11% for the second.

Going from `O=C(Cn1cnc2sc(-c3ccc(Cl)cc3)cc2c1=O)N1CCCC1` [Example 74, 6-(4-chlorophenyl)-3-(2-oxo-2-(pyrrolidin-1-yl)ethyl)thieno[2,3-d]pyrimidin-4(3H)-one] to `O=C(Cn1cnc2sc(-c3ccc(Cl)cc3)cc2c1=O)N1CCCCC1` [Example 75, 6-(4-chlorophenyl)-3-[2-oxo-2-(piperidin-1-yl)ethyl]-3H,4H-thieno[2,3-d]pyrimidin-4-one], the “Response Recovered (%)” value falls from 1% to 0%.

Compared with `O=C(Cn1cnc2sc(-c3ccc(Cl)cc3)cc2c1=O)NC1CC1` [Example 76, 2-[6-(4-chlorophenyl)-4-oxo-3H,4H-thieno[2,3-d]pyrimidin-3-yl]-N-cyclopropylacetamide], `O=C(Cn1cnc2sc(-c3ccc(Cl)cc3)cc2c1=O)N1CCOCC1` [Example 77, 6-(4-chlorophenyl)-3-[2-(morpholin-4-yl)-2-oxoethyl]-3H,4H-thieno[2,3-d]pyrimidin-4-one] is lower in “Response Recovered (%)” value: 34% for the first, 18% for the second.

Going from `O=C(Cn1cnc2sc(-c3ccc(Cl)cc3)cc2c1=O)N1CCC(F)(F)CC1` [Example 78, 6-(4-chlorophenyl)-3-[2-(4,4-difluoropiperidin-1-yl)-2-oxoethyl]-3H,4H-thieno└2,3-d┘pyrimidin-4-one] to `Cc1sc2ncn(CC(=O)N3CCCC3)c(=O)c2c1-c1ccc(Cl)cc1` [Example 79, 5-(4-Chloro-phenyl)-6-methyl-3-(2-oxo-2-pyrrolidin-1-yl-ethyl)-3H-thieno[2,3-d]pyrimidin-4-one], the “Response Recovered (%)” value rises from 13% to 17%.

Going from `Cc1sc2ncn(CC(=O)N3CCCC3C(F)(F)F)c(=O)c2c1-c1ccc(Cl)cc1` (stereo not shown) [Example 80, 5-(4-chlorophenyl)-6-methyl-3-{2-oxo-2-[2-(trifluoromethyl)pyrrolidin-1-yl]ethyl}-3H,4H-thieno[2,3-d]pyrimidin-4-one] to `Cc1sc2ncn(CC(=O)N3CCCC3)c(=O)c2c1-c1ccc(F)c(C(F)(F)F)c1` [Example 81, 5-[4-fluoro-3-(trifluoromethyl)phenyl]-6-methyl-3-[2-oxo-2-(pyrrolidin-1-yl)ethyl]-3H,4H-thieno[2,3-d]pyrimidin-4-one], the “Response Recovered (%)” value rises from 10% to 40%.

For `Cc1sc2ncn(CC(=O)N3CCCC3)c(=O)c2c1-c1ccc(Cl)c(C(F)(F)F)c1` [Example 82, 5-[4-chloro-3-(trifluoromethyl)phenyl]-6-methyl-3-[2-oxo-2-(pyrrolidin-1-yl)ethyl]-3H,4H-thieno[2,3-d]pyrimidin-4-one], the “Response Recovered (%)” value was 15%.
